Measured values from ChEMBL document CHEMBL5352441, “Modulation of FLT3-ITD and CDK9 in acute myeloid leukaemia cells by novel proteolysis targeting chimera (PROTAC)” (2022).
The source made the active and inactive calls. No cut-off for these calls is given here.

Assays:
[1] = molecular target: Receptor-type tyrosine-protein kinase FLT3 (Homo sapiens) (UniProt P36888); test: Inhibition of FLT3 autophosphorylation at Y589/591 residue in human MV4-11 cells at 0.1 to 0.5 uM preincubated for 90 mins with 4-hydroxythalidomide followed by compound addition and further incubated for 16 hrs by immunoblot analysis; type: cell-based; details: dose 0.1-0.5 µM
Chain of Receptor-type tyrosine-protein kinase FLT3 (Homo sapiens) (P36888 whole entry): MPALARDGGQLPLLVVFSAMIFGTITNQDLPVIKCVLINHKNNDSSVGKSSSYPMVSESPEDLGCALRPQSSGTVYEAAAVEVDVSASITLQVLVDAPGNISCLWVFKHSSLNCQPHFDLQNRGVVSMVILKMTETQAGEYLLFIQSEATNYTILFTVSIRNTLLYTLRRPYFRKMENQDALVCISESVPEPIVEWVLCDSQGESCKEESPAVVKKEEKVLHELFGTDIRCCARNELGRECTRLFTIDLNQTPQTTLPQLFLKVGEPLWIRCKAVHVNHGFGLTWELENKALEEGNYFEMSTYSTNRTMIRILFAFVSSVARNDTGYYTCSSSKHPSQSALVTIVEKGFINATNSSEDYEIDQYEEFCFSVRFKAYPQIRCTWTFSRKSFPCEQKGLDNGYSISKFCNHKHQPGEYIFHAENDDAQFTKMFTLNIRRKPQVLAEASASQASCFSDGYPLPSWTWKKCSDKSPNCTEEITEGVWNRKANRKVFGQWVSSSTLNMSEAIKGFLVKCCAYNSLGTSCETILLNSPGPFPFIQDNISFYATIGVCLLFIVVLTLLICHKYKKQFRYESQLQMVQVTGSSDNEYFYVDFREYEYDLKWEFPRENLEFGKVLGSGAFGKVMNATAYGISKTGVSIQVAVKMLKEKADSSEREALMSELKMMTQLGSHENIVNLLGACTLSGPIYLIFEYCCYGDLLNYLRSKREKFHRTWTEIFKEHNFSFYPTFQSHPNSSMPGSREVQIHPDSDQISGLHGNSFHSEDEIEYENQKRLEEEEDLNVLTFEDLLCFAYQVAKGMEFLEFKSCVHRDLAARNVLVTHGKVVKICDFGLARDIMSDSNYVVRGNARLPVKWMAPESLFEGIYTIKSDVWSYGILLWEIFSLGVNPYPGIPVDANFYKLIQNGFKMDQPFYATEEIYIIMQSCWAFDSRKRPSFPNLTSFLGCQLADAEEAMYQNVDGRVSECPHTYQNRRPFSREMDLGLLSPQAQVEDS

[2] = molecular target: T1, Protein cereblon/Cyclin-dependent kinase 9 (Homo sapiens) (UniProt P50750+Q96SW2); test: PROTAC activity at CRBN/CDK9 in human MV4-11 cells harboring FLT3-ITD mutation assessed as induction of protein degradation incubated for 16 hrs by immunoblot analysis; type: cell-based; details: dose 0.004-2.5 µM
T1 sequence (P50750 whole entry, looked up): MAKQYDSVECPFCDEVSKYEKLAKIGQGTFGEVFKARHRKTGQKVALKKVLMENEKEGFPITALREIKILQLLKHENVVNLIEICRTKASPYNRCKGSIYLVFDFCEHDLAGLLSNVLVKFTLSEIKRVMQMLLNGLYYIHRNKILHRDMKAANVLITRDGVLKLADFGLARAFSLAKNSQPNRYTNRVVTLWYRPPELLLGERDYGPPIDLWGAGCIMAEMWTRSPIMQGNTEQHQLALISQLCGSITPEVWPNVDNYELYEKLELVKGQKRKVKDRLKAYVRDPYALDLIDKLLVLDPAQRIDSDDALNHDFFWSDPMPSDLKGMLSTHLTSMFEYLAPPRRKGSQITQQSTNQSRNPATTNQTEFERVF
T1 sequence (Q96SW2 whole entry, looked up): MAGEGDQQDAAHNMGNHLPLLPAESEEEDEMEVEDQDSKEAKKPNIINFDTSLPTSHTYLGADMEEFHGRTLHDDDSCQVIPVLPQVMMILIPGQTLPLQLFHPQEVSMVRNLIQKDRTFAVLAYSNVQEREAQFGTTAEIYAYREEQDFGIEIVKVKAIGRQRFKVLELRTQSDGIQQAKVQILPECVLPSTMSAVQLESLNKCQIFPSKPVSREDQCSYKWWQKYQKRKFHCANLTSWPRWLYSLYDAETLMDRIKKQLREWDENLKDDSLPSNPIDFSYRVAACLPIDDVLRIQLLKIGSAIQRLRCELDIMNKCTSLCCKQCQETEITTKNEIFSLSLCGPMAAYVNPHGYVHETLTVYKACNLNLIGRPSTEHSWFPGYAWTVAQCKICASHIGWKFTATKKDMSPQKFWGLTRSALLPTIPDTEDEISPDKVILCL

MV4-11 [3] = test: Induction of apoptosis in human MV4-11 cells assessed as activation of caspase 3 at 0.1 to 0.5 uM preincubated for 90 mins with 4-hydroxythalidomide followed by compound addition and further incubated for 16 hrs in presence of Ac-DEVD-AMC by fluorescence microplate reader analysis; type: functional, cell-based; details: dose 0.1-0.5 µM
MV4-11 [4] = test: Downregulation of MEISI gene expression in human MV4-11 cells incubated for 4 hrs by qRT-PCR analysis; type: functional, cell-based; details: dose 0.004-2.5 µM
MV4-11 [5] = test: Downregulation of Myb gene expression in human MV4-11 cells incubated for 4 hrs by qRT-PCR analysis; type: functional, cell-based; details: dose 0.004-2.5 µM
MV4-11 [6] = test: Induction of cell cycle arrest in human MV4-11 cells assessed as accumulation of cells at G2/M phase at 0.02 uM incubated for 16 hrs by PI staining based flow cytometry analysis (reference value: 10.86%); type: functional
MV4-11 [7] = test: Antiproliferative activity against CRBN-deficient human MV4-11 cells assessed as cell growth inhibition incubated for 72 hrs by resazurin dye based fluorescence analysis; type: functional
MV4-11 [8] = test: Induction of cell cycle arrest in CRBN-deficient human MV4-11 cells assessed as accumulation of cells at S phase at 0.02 uM incubated for 16 hrs by PI staining based flow cytometry analysis (reference value: 36.91%); type: functional
K562 = test: Antiproliferative activity against human K562 cells assessed as cell growth inhibition incubated for 72 hrs by resazurin dye based fluorescence analysis; type: functional
[9] = molecular target: Receptor-type tyrosine-protein kinase FLT3 (Homo sapiens) (UniProt P36888); test: Stabilization of FLT3 in CRBN-deficient human MV4-11 at 0.004 to 2.5 uM incubated for 16 hrs by immunoblot analysis; type: cell-based; details: dose 0.004-2.5 µM
MV4-11 [10] = test: Induction of cell cycle arrest in human MV4-11 cells assessed as accumulation of cells at G2/M phase at 0.004 uM incubated for 16 hrs by PI staining based flow cytometry analysis (reference value: 10.86%); type: functional
RS4-11 = test: Antiproliferative activity against human RS4-11 cells assessed as cell growth inhibition incubated for 72 hrs by resazurin dye based fluorescence analysis; type: functional
[11] = Selectivity index, ratio of GI50 for antiproliferative activity against CRBN-deficient human MV4-11 cells to GI50 for antiproliferative activity against human MV4-11 cells harboring FLT3-ITD mutation; type: functional
MV4-11 [12] = test: Antiproliferative activity against human MV4-11 cells harboring FLT3-ITD mutation assessed as cell growth inhibition incubated for 72 hrs by resazurin dye based fluorescence analysis; type: functional
[13] = system: Receptor-type tyrosine-protein kinase FLT3 (Homo sapiens), P36888 [UNDEFINED MUTATION]; test: Inhibition of FLT3 in human MV4-11 cells harboring FLT3-ITD mutation assessed as reduction in STAT5 phosphorylation at Y694 residue at 0.004 to 2.5 uM incubated for 16 hrs by immunoblot analysis; type: cell-based; details: dose 0.004-2.5 µM
Chain of Receptor-type tyrosine-protein kinase FLT3 (Homo sapiens), P36888 [UNDEFINED MUTATION] (P36888 whole entry, looked up, stated change not applied): as the sequence (P36888 whole entry) above

[14] = molecular target: Protein cereblon/Receptor-type tyrosine-protein kinase FLT3 (Homo sapiens) (UniProt P36888+Q96SW2); test: PROTAC activity at CRBN/FLT3 in human MV4-11 cells at 0.1 to 0.5 uM preincubated for 90 mins with MG132 followed by compound addition and further incubated for 16 hrs by immunoblot analysis; type: cell-based; details: dose 0.1-0.5 µM
Chain of Protein cereblon/Receptor-type tyrosine-protein kinase FLT3 (Homo sapiens) (P36888 27-993 limits assumed): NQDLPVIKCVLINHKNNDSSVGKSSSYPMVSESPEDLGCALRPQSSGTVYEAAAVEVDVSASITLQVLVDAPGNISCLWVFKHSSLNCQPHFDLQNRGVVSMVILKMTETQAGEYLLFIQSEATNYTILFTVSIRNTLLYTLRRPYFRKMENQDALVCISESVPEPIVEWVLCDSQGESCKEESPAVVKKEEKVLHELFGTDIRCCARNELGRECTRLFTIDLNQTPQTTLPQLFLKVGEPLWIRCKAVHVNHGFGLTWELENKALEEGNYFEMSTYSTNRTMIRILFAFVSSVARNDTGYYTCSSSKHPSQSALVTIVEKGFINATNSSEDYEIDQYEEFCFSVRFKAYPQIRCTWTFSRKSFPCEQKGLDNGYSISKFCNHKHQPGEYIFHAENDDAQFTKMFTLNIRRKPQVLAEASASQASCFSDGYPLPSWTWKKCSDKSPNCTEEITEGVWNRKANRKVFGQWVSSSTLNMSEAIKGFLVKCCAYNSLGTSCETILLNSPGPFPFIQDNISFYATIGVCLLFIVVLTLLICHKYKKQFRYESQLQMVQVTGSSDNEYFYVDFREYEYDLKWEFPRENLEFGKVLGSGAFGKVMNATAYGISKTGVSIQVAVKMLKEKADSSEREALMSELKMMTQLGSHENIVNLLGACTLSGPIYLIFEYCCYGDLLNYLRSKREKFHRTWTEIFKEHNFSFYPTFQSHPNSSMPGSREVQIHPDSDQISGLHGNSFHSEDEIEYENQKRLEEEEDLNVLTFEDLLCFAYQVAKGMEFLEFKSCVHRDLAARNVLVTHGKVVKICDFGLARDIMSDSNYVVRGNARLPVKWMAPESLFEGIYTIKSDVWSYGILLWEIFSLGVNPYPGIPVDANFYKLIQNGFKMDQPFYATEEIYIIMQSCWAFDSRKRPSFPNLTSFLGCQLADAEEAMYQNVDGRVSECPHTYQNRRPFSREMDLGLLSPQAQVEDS
Chain of Protein cereblon/Receptor-type tyrosine-protein kinase FLT3 (Homo sapiens) (Q96SW2 whole entry partner): as the sequence (Q96SW2 whole entry, looked up) above

[15] = molecular target: T1, Protein cereblon/Cyclin-dependent kinase 9 (Homo sapiens); test: PROTAC activity at CRBN/CDK9 in CRBN-deficient human MV4-11 cells assessed as induction of protein degradation at 0.004 to 2.5 uM incubated for 16 hrs by immunoblot analysis; type: cell-based; details: dose 0.004-2.5 µM
MV4-11 [16] = test: Induction of cell cycle arrest in CRBN-deficient human MV4-11 cells assessed as accumulation of cells at G1 phase at 2.5 uM incubated for 16 hrs by PI staining based flow cytometry analysis (reference value: 54.05%); type: functional
MV4-11 [17] = test: Induction of apoptosis in CRBN-deficient human MV4-11 cells assessed as activation of caspase 7 at 0.004 to 25 uM incubated for 16 hrs in presence of Ac-DEVD-AMC by fluorescence microplate reader analysis; type: functional, cell-based; details: dose 0.004-25 µM
[18] = system: Receptor-type tyrosine-protein kinase FLT3 (Homo sapiens), P36888 [UNDEFINED MUTATION]; test: Inhibition of FLT3 autophosphorylation at Y589/591 residue in human MV4-11 cells harboring FLT3-ITD mutation at 0.004 to 2.5 uM incubated for 16 hrs by immunoblot analysis; type: cell-based; details: dose 0.004-2.5 µM
MV4-11 [19] = test: Induction of cell cycle arrest in CRBN-deficient human MV4-11 cells assessed as accumulation of cells at G1 phase at 0.02 uM incubated for 16 hrs by PI staining based flow cytometry analysis (reference value: 54.05%); type: functional
MV4-11 [20] = test: Induction of cell cycle arrest in CRBN-deficient human MV4-11 cells assessed as accumulation of cells at G2/M phase at 0.5 uM incubated for 16 hrs by PI staining based flow cytometry analysis (reference value: 9.34%); type: functional

For `NC1CCC(Nc2nc(Nc3ccc(N4CCN(CCOCCOCCNC(=O)CNc5cccc6c5C(=O)N(C5CCC(=O)NC5=O)C6=O)CC4)cc3)c3ncn(C4CCCC4)c3n2)CC1` (configuration not stated), the inhibition [1] was “Active”, the Activity [2] was “Dose-Dependent Effect” and the Activity (MV4-11 [3]) was “inactive”. For the same compound, the Activity (MV4-11 [4]) was “Dose-Dependent Effect”, the Activity (MV4-11 [5]) was “Dose-Dependent Effect” and the Activity (MV4-11 [6]) was 5.22%. It also gave a GI50 (MV4-11 [7]) of 0.119 µM, an Activity (MV4-11 [8]) of 17.04% and a GI50 (K562) of over 10 µM. The Activity [9] was “Active”, the Activity (MV4-11 [10]) was 9.03% and the GI50 (RS4-11) was 1.01 µM. The RatioGI50 [11] was 2, the GI50 (MV4-11 [12]) was 0.047 µM and the inhibition [13] was “Active”. The Activity [14] was “inactive”, the Activity [15] was “inactive” and the Activity (MV4-11 [16]) was 89.4%. For the same compound, the Activity (MV4-11 [17]) was “inactive”, the inhibition [18] was “Active” and the Activity (MV4-11 [19]) was 76.96%. For the same compound, the Activity (MV4-11 [20]) was 3.91%.
